Measurements published in patent publication US20260078158A1, “COMPOSITIONS COMPRISING CXCL10-DERIVED PEPTIDES AND METHODS OF USE THEREOF” (priority 2022, published 2026).
Values after ≈ are worked out from the molar mass of the structure shown. Read-outs that look alike come from different tables or passages of the source. Where a SMILES comes first, the peptide text is derived from it. [ ]: non-standard residue; d: D form.

Tests used:
Enterococcus faecalis = test: microbe, parasite or virus in culture; format: cell-based; settings: for MIC50 fold change: Enterococcus faecalis (2 isolates)
Enterococcus faecium = test: microbe, parasite or virus in culture; format: cell-based; settings: for MIC50 fold change: Enterococcus faecium (3 isolates)
[1] = system: Acinetobacter baumannii-calcoaceticus complex; test: microbe, parasite or virus in culture; format: cell-based; settings: for MIC50 fold change: Acinetobacter spp. (5 isolates)
Escherichia coli = test: microbe, parasite or virus in culture; format: cell-based; settings: for MIC50 fold change: Escherichia coli (5 isolates)
[2] = system: E. cloacae species complex; test: microbe, parasite or virus in culture; format: cell-based, Enterobacter cloacae; settings: for MIC: Enterobacter cloacae, read-out: MIC; for MIC50 fold change: Enterobacter spp. (5 isolates)
Pseudomonas aeruginosa = test: microbe, parasite or virus in culture; format: cell-based; settings: for MIC50 fold change: Pseudomonas aeruginosa (5 isolates)
Streptococcus pneumoniae = test: microbe, parasite or virus in culture; format: cell-based
Staphylococcus aureus = test: microbe, parasite or virus in culture; format: cell-based
Klebsiella pneumoniae [3] = test: microbe, parasite or virus in culture
Klebsiella pneumoniae [4] = settings: for MIC50 fold change: Klebsiella pneumoniae (5 isolates)

## C[C@H]1COc2c(N3CCN(C)CC3)c(F)cc3c(=O)c(C(=O)O)cn1c23 [Levofloxacin, reference compound]
Enterococcus faecalis; ATCC29212, Enterococcus faecalis ATCC 29212, QC, read-out: MIC
  MIC: 0.5 µg/mL (≈ 1.38 µM)
Enterococcus faecalis; Enterococcus faecalis, Collection No. 1204777, VRE, read-out: MIC
  MIC: 32 µg/mL (≈ 88.6 µM)
Enterococcus faecalis; Enterococcus faecalis, Collection No. 1211589, VRE
  MIC: 32 µg/mL (≈ 88.6 µM)
Enterococcus faecium; Enterococcus faecium, Collection No. 1196024, VRE, read-out: MIC
  MIC: > 64 µg/mL
Enterococcus faecium; Enterococcus faecium, Collection No. 1208412, VRE
  MIC: >64 µg/mL
Enterococcus faecium; Enterococcus faecium, Collection No. 1222807, VSE, read-out: MIC
  MIC: 8 µg/mL (≈ 22.1 µM)
[1]; Acinetobacter, ABC species complex, Collection No. 1204424, non-MDR, read-out: MIC
  MIC: 0.12 µg/mL (≈ 0.332 µM)
[1]; Acinetobacter, ABC species complex, Collection No. 1208060, non-MDR, read-out: MIC
  MIC: 0.06 µg/mL (≈ 0.166 µM)
[1]; Acinetobacter, ABC species complex, Collection No. 1215088, MDR, read-out: MIC
  MIC: 32 µg/mL (≈ 88.6 µM)
[1]; Acinetobacter, ABC species complex, Collection No. 1215098, MDR, read-out: MIC
  MIC: 16 µg/mL (≈ 44.3 µM)
[1]; Acinetobacter, ABC species complex, Collection No. 1216520, non-MDR, read-out: MIC
  MIC: 0.25 µg/mL (≈ 0.692 µM)
Escherichia coli; Escherichia coli, ATCC25922, Escherichia coli ATCC 25922, QC, read-out: MIC
  MIC: 0.015 µg/mL (≈ 0.0415 µM)
Escherichia coli; Escherichia coli, ATCCBAA2452, Escherichia coli ATCC BAA-2452, NDM-1, read-out: MIC
  MIC: 0.03 µg/mL (≈ 0.083 µM)
Escherichia coli; Escherichia coli, Collection No. 1191008, MDR, ESBL, read-out: MIC
  MIC: 32 µg/mL (≈ 88.6 µM)
Escherichia coli; Escherichia coli, Collection No. 1231795, MDR, ESBL, read-out: MIC
  MIC: 8 µg/mL (≈ 22.1 µM)
Escherichia coli; Escherichia coli, Collection No. 1232428, MDR (COL-R), ESBL, read-out: MIC
  MIC: 8 µg/mL (≈ 22.1 µM)
Escherichia coli; Escherichia coli, Collection No. 1248389, ESBL, read-out: MIC
  MIC: 8 µg/mL (≈ 22.1 µM)
[2]; B. cloacae species complex, Collection No. 1204419, non-MDR
  MIC: 0.03 µg/mL (≈ 0.083 µM)
[2]; Collection No. 1230117, non-MDR
  MIC: 0.015 µg/mL (≈ 0.0415 µM)
[2]; E. cloacae species complex, Collection No. 1197959, non-MDR
  MIC: 0.25 µg/mL (≈ 0.692 µM)
[2]; E. cloacae species complex, Collection No. 1230601, non-MDR
  MIC: 0.03 µg/mL (≈ 0.083 µM)
[2]; E. cloacae species complex, Collection No. 1232701, MDR
  MIC: 8 µg/mL (≈ 22.1 µM)
Pseudomonas aeruginosa; Pseudomonas aeruginosa ATCC 27853, QC
  MIC: 0.5 µg/mL (≈ 1.38 µM)
Pseudomonas aeruginosa; Pseudomonas aeruginosa, ATCC27853, Pseudomonas aeruginosa ATCC 27853, QC, read-out: MIC
  MIC: 1 µg/mL (≈ 2.77 µM)
Pseudomonas aeruginosa; Pseudomonas aeruginosa, Collection No. 1190985, non-MDR, read-out: MIC
  MIC: 0.25 µg/mL (≈ 0.692 µM)
Pseudomonas aeruginosa; Pseudomonas aeruginosa, Collection No. 1202638, MDR, read-out: MIC
  MIC: 16 µg/mL (≈ 44.3 µM)
Pseudomonas aeruginosa; Pseudomonas aeruginosa, Collection No. 1210081, non-MDR, read-out: MIC
  MIC: 0.5 µg/mL (≈ 1.38 µM)
Pseudomonas aeruginosa; Pseudomonas aeruginosa, Collection No. 1242554, non-MDR, read-out: MIC
  MIC: 0.5 µg/mL (≈ 1.38 µM)
Pseudomonas aeruginosa; Pseudomonas aeruginosa, Collection No. 1263496, MDR, read-out: MIC
  MIC: 0.25 µg/mL (≈ 0.692 µM)
Streptococcus pneumoniae; ATCC49619, Streptococcus pneumoniae ATCC 49619, QC, read-out: MIC
  MIC: 0.5 µg/mL (≈ 1.38 µM)
Streptococcus pneumoniae; Streptococcus pneumoniae, Collection No. 1200385, PEN-S, read-out: MIC
  MIC: 1 µg/mL (≈ 2.77 µM)
Streptococcus pneumoniae; Streptococcus pneumoniae, Collection No. 1219456, PEN-R
  MIC: 1 µg/mL (≈ 2.77 µM)
Streptococcus pneumoniae; Streptococcus pneumoniae, Collection No. 1219876, PEN-R
  MIC: 1 µg/mL (≈ 2.77 µM)
Streptococcus pneumoniae; Streptococcus pneumoniae, Collection No. 1223661, PEN-R
  MIC: 1 µg/mL (≈ 2.77 µM)
Streptococcus pneumoniae; Streptococcus pneumoniae, Collection No. 1227224, PEN-S
  MIC: 1 µg/mL (≈ 2.77 µM)
Staphylococcus aureus; Staphylococcus aureus, MRSA / USA300, Staphylococcus aureus, Collection No. 1124691, MRSA (USA300)/MDR, read-out: MIC
  MIC: 8 µg/mL (≈ 22.1 µM)
Staphylococcus aureus; Staphylococcus aureus, MRSA, Staphylococcus aureus, Collection No. 1189667, MRSA/MDR, read-out: MIC
  MIC: > 64 µg/mL
Staphylococcus aureus; Staphylococcus aureus, MRSA, Staphylococcus aureus, Collection No. 1189809, MRSA/MDR, read-out: MIC
  MIC: 32 µg/mL (≈ 88.6 µM)
Staphylococcus aureus; Staphylococcus aureus, MRSA, Staphylococcus aureus, Collection No. 1190388, MRSA, read-out: MIC
  MIC: 16 µg/mL (≈ 44.3 µM)
Staphylococcus aureus; Staphylococcus aureus, MRSA, Staphylococcus aureus, Collection No. 1221979, MRSA, read-out: MIC
  MIC: 1 µg/mL (≈ 2.77 µM)
Klebsiella pneumoniae [3]; ATCC700603, Klebsiella pneumoniae ATCC 700603, ESBL
  MIC: 1 µg/mL (≈ 2.77 µM)
Klebsiella pneumoniae [3]; BAA1705, Klebsiella pneumoniae ATCC BAA 1705, KPC
  MIC: 64 µg/mL (≈ 177 µM)
Klebsiella pneumoniae [3]; Collection No. 1230887, non-MDR
  MIC: 0.06 µg/mL (≈ 0.166 µM)
Klebsiella pneumoniae [3]; Collection No. 1236064, non-MDR
  MIC: 0.03 µg/mL (≈ 0.083 µM)

## CC[C@@H](C)[C@@H](NC(=O)[C@@H](CS)NC(=O)[C@@H](CCSC)NC(=O)[C@@H](CS)NC(=O)[C@@H](CCCNC(=N)N)NC(=O)[C@H](NC(=O)[C@H](NC(=O)[C@H](N)CCCNC(=N)N)[C@H](C)O)C(C)C)C(=O)O [P182 A, RTVRCMCI] (H-[dR][dT][dV][dR][dC][dM][dC][dI]-OH; N-terminus and C-terminus assumed)
Enterococcus faecalis
  MIC: 8 µg/mL (≈ 8.15 µM)
Enterococcus faecium
  MIC: 8 µg/mL (≈ 8.15 µM)
[1]; -calcoaceticus complex
  MIC: 16 µg/mL (≈ 16.3 µM)
Escherichia coli
  MIC: 16 µg/mL (≈ 16.3 µM)
Streptococcus pneumoniae
  MIC: 32 µg/mL (≈ 32.6 µM)

## CC[C@@H](C)[C@@H](NC(=O)[C@@H](CS)NC(=O)[C@@H](CCSC)NC(=O)[C@@H](CS)NC(=O)[C@@H](CCCNC(=N)N)NC(=O)[C@H](NC(=O)[C@H](NC(=O)[C@H](N)CCCNC(=N)N)[C@H](C)O)C(C)C)C(=O)O [P182 F, RTVRCMCI] (H-[dR][dT][dV][dR][dC][dM][dC][dI]-OH; N-terminus and C-terminus assumed)
Enterococcus faecalis
  MIC: 8 µg/mL (≈ 8.15 µM)
Enterococcus faecium
  MIC: 8 µg/mL (≈ 8.15 µM)
[1]; -calcoaceticus complex
  MIC: 16 µg/mL (≈ 16.3 µM)
Streptococcus pneumoniae
  MIC: 32 µg/mL (≈ 32.6 µM)

## CC[C@@H](C)[C@@H](NC(=O)[C@@H](CS)NC(=O)[C@@H](CCCNC(=N)N)NC(=O)[C@@H](CS)NC(=O)[C@@H](CCCNC(=N)N)NC(=O)[C@H](NC(=O)[C@@H](Cc1ccc(O)cc1)NC(=O)[C@H](N)CCCNC(=N)N)C(C)C)C(=O)O [P194 A, RYVRCRCI] (H-[dR][dY][dV][dR][dC][dR][dC][dI]-OH; N-terminus and C-terminus assumed)
Enterococcus faecalis
  MIC: 4 µg/mL (≈ 3.74 µM)
  MIC50: 2 µg/mL (≈ 1.87 µM)
Enterococcus faecium
  MIC: 2 µg/mL (≈ 1.87 µM)
  MIC50: 1 µg/mL (≈ 0.936 µM)
[1]; -calcoaceticus complex
  MIC50: 4 µg/mL (≈ 3.74 µM)
Escherichia coli
  MIC50: 8 µg/mL (≈ 7.49 µM)
[2]; species complex
  MIC50: 16 µg/mL (≈ 15 µM)
Pseudomonas aeruginosa
  MIC50: 32 µg/mL (≈ 30 µM)
Streptococcus pneumoniae
  MIC50: 32 µg/mL (≈ 30 µM)
Staphylococcus aureus
  MIC: 32 µg/mL (≈ 30 µM)
  MIC50: 32 µg/mL (≈ 30 µM)
Klebsiella pneumoniae [4]
  MIC50: 4 µg/mL (≈ 3.74 µM)

## CC[C@@H](C)[C@@H](NC(=O)[C@@H](CS)NC(=O)[C@@H](CCCNC(=N)N)NC(=O)[C@@H](CS)NC(=O)[C@@H](CCCNC(=N)N)NC(=O)[C@H](NC(=O)[C@@H](Cc1ccc(O)cc1)NC(=O)[C@H](N)CCCNC(=N)N)C(C)C)C(=O)O [P194 F, RYVRCRCI] (H-[dR][dY][dV][dR][dC][dR][dC][dI]-OH; N-terminus and C-terminus assumed)
Enterococcus faecalis
  MIC: 8 µg/mL (≈ 7.49 µM)
Enterococcus faecium
  MIC: 4 µg/mL (≈ 3.74 µM)
Streptococcus pneumoniae
  MIC: 32 µg/mL (≈ 30 µM)

## ATVRCTCI [Peptide D8-R1A]
Enterococcus faecalis; relative to D8-acetate
  MIC50 fold change: 2
Enterococcus faecium; relative to D8-acetate
  MIC50 fold change: 2
[1]; relative to D8-acetate
  MIC50 fold change: 4
Escherichia coli; relative to D8-acetate
  MIC50 fold change: 4
[2]; relative to D8-acetate
  MIC50 fold change: 2
Pseudomonas aeruginosa; relative to D8-acetate
  MIC50 fold change: 2
Klebsiella pneumoniae [4]; relative to D8-acetate
  MIC50 fold change: 4

## AYVRCRCI [Peptide P194-R1A]
Enterococcus faecalis; relative to P194-acetate
  MIC50 fold change: 1
Enterococcus faecium; relative to P194-acetate
  MIC50 fold change: 2
[1]; relative to P194-acetate
  MIC50 fold change: 1
Escherichia coli; relative to P194-acetate
  MIC50 fold change: 0.5
[2]; relative to P194-acetate
  MIC50 fold change: 0.5
Pseudomonas aeruginosa; relative to P194-acetate
  MIC50 fold change: 1
Streptococcus pneumoniae; relative to P194-acetate, Streptococcus pneumoniae (5 isolates)
  MIC50 fold change: 1
Staphylococcus aureus; relative to P194-acetate, Staphylococcus aureus (5 isolates)
  MIC50 fold change: 0.5
Klebsiella pneumoniae [4]; relative to P194-acetate
  MIC50 fold change: 1
